How the values were obtained:
[1] = test system: M. tuberculosis H37Rv; assay type: cell-based
[2] = test system: drug susceptible and drug-resistant M. tuberculosis strains; assay type: cell-based

Structure (SMILES)	agar MIC [1] [µM]	fold increase of MIC of resistant mutant over WT H37Rv [1]	frequency of resistance (FOR) [1]	MICs (range over strains) [2] [µM]	fold increase in MIC [1]
O=C(O)CCCCCC1NC(=O)CS1 (racemic) [(±)-acidomycin, 6-(4-Oxothiazolidin-2-yl)hexanoic acid]	12	approximately 16 fold	less than or equal to 1 × 10^−8		
O=C(O)CCCCCC1NC(=O)CS1 (stereo not drawn) [acidomycin]		16 fold		0.096 to 6.2	two- to three-fold

— publication PMC6724193 (ACS infectious diseases, 2019)
